Each structure is given as a SMILES string.

Results on 16 compounds are retold here after patent US11834453B2, “Substituted pyrimido[5,4-d]pyrimidines as HER2 inhibitors” (Array BioPharma Inc., priority 2020, dated 2023).

Series [1] addresses ErbB2 insYVMA (HER2-YVMA, SEQ ID NO: 2) (Homo sapiens, UniProt P04626, INS775YVMA/P1170A). The series can be described thus: biochemical. Conditions: ErbB2 insYVMA enzyme assay; read-out: Assay 1 IC50.
Another series concerns the target ErbB2 WT (Homo sapiens (Human), UniProt P04626). The series can be described thus: ErbB enzyme assay (CisBio HTRF KinEASE-TK), Assay 2. Type of series: biochemical. The essentials:
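ErbB2 phosphorylates 250 nM biotin-TK substrate at 1 mM ATP in 25 mM HEPES pH 7.4, 10 mM MgCl2, 0.01% Triton X-100 and 2% DMSO, for 30 min at 22 °C. Product is detected by HTRF with Sa-XL665 and TK-Ab-Cryptate. Percent of control is set by DMSO-only wells and pre-quenched wells.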

The next series has as its target EGFR (Homo sapiens (Human), UniProt P00533). Nature of the series: ErbB enzyme assay (CisBio HTRF KinEASE-TK), Assay 3. Type of series: biochemical. The essentials:
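HTRF KinEASE-TK assay: kinase with 250 nM biotinylated TK-substrate and 1 mM ATP in 25 mM HEPES pH 7.4, 10 mM MgCl2, 0.01% Triton X-100, 2% DMSO, 30 min at 22 °C. Quenched with Sa-XL665/TK-Ab-Cryptate, read after 1 h. IC50 from 4-parameter fit of percent of control.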

The target in series [2] is ErbB2 with Exon 20 YVMA insertion (HER2-YVMA) (Homo sapiens (Human), UniProt P04626, INS775YVMA). Nature of the series: Cellular phosphorylation assay, constitutive ErbB2 phosphorylation (Y1196) in engineered NIH 3T3 cells, Assay 4. The format is cell-based. The gist of the method: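 Engineered NIH 3T3 cells expressing HER2-YVMA treated with compounds 1 h at 37 °C, then formaldehyde-fixed and methanol-permeabilized. pErbB2 Y1196 detected by in-cell infrared immunofluorescence, normalized to GAPDH. IC50 from the normalized curves.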
ErbB2 with Exon 20 YVMA insertion (HER2-YVMA), sequence (P04626 other isoform, or with tags, fused parts or gaps ins YVMA behind 775): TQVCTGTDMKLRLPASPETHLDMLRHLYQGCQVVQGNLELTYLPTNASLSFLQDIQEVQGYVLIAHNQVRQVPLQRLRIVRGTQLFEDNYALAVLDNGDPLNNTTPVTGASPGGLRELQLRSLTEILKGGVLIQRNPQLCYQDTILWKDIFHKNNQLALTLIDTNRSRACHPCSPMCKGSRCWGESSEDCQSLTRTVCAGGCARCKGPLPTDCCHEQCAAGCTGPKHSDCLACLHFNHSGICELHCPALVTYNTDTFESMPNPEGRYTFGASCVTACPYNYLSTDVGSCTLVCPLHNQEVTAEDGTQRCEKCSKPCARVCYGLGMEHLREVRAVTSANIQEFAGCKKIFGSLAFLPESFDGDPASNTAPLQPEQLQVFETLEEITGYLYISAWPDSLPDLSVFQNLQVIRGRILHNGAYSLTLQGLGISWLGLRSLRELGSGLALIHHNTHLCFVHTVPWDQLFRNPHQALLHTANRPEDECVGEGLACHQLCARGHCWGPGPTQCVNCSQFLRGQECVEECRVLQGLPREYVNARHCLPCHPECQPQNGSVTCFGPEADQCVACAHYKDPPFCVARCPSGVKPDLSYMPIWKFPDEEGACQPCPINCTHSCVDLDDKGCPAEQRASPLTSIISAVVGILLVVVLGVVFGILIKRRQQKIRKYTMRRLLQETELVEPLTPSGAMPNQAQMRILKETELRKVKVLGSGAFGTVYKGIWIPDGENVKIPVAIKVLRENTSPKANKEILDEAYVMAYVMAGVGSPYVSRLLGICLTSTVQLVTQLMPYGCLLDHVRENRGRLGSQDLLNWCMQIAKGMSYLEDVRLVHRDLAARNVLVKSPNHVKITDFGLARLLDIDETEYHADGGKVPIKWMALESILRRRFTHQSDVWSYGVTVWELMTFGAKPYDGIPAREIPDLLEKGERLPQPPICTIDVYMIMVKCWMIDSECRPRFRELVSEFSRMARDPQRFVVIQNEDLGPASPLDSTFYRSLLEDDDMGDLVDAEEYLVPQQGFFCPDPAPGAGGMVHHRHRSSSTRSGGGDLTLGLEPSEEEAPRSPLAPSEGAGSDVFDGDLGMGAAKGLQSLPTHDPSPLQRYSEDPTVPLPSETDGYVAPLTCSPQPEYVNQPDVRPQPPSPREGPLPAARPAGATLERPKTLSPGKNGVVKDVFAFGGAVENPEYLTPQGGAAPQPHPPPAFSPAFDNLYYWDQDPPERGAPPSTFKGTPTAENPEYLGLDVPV

A further series concerns the target EGFR wild type (EGFR WT) (Homo sapiens (Human), UniProt P00533). Nature of the series: Cellular phosphorylation assay, EGF-stimulated EGFR phosphorylation in engineered NIH 3T3 cells, Phospho-EGFR DuoSet IC ELISA, Assay 5. The format is cell-based. The gist of the method: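 NIH 3T3 cells expressing EGFR WT (20,000/well, attached overnight) were exposed to serially diluted compound for 1 h at 37 °C, then stimulated with 100 ng/ml rEGF for 10 min. Phospho-EGFR in lysates measured by sandwich ELISA optical density; IC50 from curves.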

A further series concerns the target MDR1 (P-gp) (Homo sapiens (Human), UniProt P08183). The series can be described thus: MDR1 transfected LLC-PK1 permeability/efflux, Assay 6. Conditions: pig.
The target of a further series is BCRP (Homo sapiens (Human), UniProt Q9UNQ0). The series can be described thus: BCRP transfected MDCKII canine Mdr1 knockout permeability/efflux, Assay 9. The settings on record: dog.
BCRP, sequence (Q9UNQ0 whole entry): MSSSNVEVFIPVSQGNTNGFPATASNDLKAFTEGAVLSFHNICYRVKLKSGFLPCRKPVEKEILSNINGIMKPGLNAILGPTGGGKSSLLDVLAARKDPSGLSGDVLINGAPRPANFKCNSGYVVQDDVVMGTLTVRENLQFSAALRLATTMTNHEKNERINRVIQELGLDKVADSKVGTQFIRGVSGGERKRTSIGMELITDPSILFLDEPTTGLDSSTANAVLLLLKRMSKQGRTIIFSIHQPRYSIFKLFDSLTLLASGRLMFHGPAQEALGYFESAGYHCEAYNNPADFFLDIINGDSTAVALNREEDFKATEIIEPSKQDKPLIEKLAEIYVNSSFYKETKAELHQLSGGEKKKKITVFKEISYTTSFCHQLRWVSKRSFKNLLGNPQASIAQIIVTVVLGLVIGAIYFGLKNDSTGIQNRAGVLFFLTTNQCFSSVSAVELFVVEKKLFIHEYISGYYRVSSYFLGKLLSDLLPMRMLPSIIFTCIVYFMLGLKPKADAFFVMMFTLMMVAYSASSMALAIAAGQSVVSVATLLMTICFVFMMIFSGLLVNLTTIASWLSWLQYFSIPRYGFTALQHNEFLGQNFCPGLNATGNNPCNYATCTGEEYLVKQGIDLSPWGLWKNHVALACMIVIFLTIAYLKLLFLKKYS
Where [3] appears, read: LLC-PK1, Assay 6 Pe Ratio, efflux ratio Papp(B-A)/Papp(A-B), MDR1 transfected LLC-PK1.
Where [4] appears, read: Assay 9 Pe Ratio, efflux ratio Papp(B-A)/Papp(A-B), BCRP transfected MDCKII canine Mdr1 knockout.

ErbB2 insYVMA (HER2-YVMA, SEQ ID NO: 2), sequence (P04626 with tags, fused parts or gaps INS775YVMA/P1170A limits assumed): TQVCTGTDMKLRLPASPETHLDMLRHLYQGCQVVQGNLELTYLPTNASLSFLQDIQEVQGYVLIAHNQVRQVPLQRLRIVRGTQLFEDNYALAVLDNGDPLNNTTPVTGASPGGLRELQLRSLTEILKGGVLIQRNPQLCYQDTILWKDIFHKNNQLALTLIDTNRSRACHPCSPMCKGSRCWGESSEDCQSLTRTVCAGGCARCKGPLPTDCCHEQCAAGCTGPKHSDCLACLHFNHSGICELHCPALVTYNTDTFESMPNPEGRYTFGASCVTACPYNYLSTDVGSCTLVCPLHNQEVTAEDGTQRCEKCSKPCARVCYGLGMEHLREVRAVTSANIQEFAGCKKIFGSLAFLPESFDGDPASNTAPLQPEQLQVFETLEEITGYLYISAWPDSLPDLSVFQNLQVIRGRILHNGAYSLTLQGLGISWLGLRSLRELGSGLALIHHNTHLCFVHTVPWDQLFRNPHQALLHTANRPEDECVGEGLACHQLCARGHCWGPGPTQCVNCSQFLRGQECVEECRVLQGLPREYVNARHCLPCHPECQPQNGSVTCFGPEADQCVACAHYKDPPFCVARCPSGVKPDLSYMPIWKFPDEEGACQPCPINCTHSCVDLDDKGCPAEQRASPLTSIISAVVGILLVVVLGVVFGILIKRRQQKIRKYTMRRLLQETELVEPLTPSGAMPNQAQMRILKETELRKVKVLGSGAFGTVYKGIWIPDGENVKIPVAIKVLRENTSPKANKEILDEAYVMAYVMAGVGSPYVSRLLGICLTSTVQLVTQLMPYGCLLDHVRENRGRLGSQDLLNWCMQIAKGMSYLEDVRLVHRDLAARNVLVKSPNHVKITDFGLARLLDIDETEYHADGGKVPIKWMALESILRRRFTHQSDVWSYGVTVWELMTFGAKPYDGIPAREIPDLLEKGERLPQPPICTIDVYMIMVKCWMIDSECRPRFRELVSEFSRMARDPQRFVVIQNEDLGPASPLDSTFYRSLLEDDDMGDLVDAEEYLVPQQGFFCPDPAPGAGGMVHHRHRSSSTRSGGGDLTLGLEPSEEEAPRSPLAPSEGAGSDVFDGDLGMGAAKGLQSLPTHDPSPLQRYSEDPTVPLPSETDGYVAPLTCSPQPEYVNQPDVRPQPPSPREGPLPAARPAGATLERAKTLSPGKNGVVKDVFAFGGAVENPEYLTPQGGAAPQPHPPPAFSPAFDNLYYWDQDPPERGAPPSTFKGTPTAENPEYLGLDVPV
MDR1 (P-gp), sequence (P08183 whole entry): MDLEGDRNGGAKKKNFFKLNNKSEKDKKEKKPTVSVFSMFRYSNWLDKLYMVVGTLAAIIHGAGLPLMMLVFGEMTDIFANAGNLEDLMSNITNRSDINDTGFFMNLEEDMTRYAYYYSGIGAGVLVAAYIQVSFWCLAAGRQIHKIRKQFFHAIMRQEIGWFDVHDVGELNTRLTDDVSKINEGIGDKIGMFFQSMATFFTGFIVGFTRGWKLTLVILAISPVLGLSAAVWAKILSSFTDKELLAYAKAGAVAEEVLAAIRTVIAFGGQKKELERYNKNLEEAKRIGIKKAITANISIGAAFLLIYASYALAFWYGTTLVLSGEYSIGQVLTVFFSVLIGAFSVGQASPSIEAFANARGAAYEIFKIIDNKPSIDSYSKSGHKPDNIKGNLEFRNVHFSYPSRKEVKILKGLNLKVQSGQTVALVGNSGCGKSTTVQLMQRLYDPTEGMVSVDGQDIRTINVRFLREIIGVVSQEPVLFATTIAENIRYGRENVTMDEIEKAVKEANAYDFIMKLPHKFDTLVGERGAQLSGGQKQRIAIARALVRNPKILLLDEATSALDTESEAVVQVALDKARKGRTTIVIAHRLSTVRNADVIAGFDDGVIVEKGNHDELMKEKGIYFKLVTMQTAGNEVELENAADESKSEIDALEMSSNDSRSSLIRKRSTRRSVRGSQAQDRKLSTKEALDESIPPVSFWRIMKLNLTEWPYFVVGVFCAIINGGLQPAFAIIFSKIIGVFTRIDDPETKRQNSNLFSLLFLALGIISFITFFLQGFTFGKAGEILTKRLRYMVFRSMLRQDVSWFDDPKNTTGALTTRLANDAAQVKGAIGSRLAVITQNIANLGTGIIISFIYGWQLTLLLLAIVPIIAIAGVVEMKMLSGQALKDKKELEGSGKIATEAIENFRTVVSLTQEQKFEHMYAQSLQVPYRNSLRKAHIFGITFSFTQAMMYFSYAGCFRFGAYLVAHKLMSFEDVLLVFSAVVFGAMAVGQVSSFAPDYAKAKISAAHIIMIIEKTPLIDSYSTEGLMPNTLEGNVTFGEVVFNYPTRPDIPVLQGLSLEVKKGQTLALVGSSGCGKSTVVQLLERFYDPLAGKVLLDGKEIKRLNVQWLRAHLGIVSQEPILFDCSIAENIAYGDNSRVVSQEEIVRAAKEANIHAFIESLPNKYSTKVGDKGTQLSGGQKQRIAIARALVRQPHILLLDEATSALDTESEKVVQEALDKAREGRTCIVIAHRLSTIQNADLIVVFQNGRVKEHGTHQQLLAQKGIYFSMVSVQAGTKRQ
Experimental for BCRP: BCRP transfected MDCKII cells (Assay 8) and BCRP transfected MDCKII canine Mdr1 knockout cells (Assay 9) were cultured and plated according to manufacturer's recommendations.
Both positive and negative controls were used to assess functionality of P-gp or BCRP efflux in the assays. Stock solutions for assay controls and the test article were prepared in DMSO for final test concentration of 1 μM. Final organic concentration in the assay was 1%. All dosing solutions contained 10 μM lucifer yellow to monitor MDCKII cell monolayer integrity.
For the apical to basolateral determination (A to B), 75 μL of the test article in transport buffer were added to the apical side of the individual transwells and 250 μL of basolateral media, without compound or lucifer yellow, were added to each well. For the basolateral to apical determination (B to A), 250 μL of test article in transport buffer were added to each well and 75 μL transport buffer, without compound or lucifer yellow, were added to each transwell. All tests were performed in triplicate, and each compound was tested for both apical to basolateral and basolateral to apical transport. The plates were incubated for 2 hours on a Lab-Line Instruments Titer Orbital Shaker (VWR, West Chester, PA) at 50 rpm and 37° C. with 5% CO2. All culture plates were removed from the incubator, 50 μL of media were removed from the apical and basolateral portion of each well, and added to 150 μL of 1 μM labetalol in 2:1 acetonitrile (ACN): H2O, v/v.
The plates were read using a Molecular Devices (Sunnyvale, CA) Gemini Fluorometer to evaluate the lucifer yellow concentrations at excitation/emission wavelengths of 425/535 nm. […] The plates were sealed, and the contents of each well analyzed by LC MS/MS. The compound concentrations were determined from the ratio of the peak areas of the compound to the internal standard (labetalol) in comparison to the dosing solution.
A MDS Sciex API 4000 (Applied Biosystems, Foster City, CA) mass spectrometer was used for detection of the analytes in the ion spray positive mode. Analyte responses were measured by multiple reaction monitoring (“MRM”) of transitions unique to each compound (the protonated precursor ion and selected product ions for each test article and m/z 329 to m/z 162 for labetalol, the internal standard.
The total run time, including re-equilibration, for a single injection was 1.2 minutes. […] The total run time, including re-equilibration, for a single injection was 0.61 minutes.
An efflux ratio is calculated from the mean apical to basolateral (A-B) Papp data and basolateral to apical (B-A) Papp data: Efflux ratio=Papp(B−A)/Papp(A−B)

For `Cc1cc(Nc2ncnc3cnc(N4CCO[C@H]5C[C@H]54)nc23)ccc1Oc1ccc2c(c1)ncn2C` [Example 161, 6-((1S,6R)-2-oxa-5-azabicyclo[4.1.0]heptan-5-yl)-N-(3-methyl-4-((1-methyl-1H-benzo[d]imidazol-5-yl)oxy)phenyl)pyrimido[5,4-d]pyrimidin-4-amine], the IC50 in series [1] is 0.0184 µM; on ErbB2 WT, 0.0289 µM; at EGFR it was 8.28 µM; in series [2], 0.016 µM; on EGFR wild type (EGFR WT) it was not below 5 µM. Moreover, the efflux ratio at 2 h, 1 μM on MDR1 (P-gp) (setting [3]) was found to be 1.8; at BCRP (setting [4]), 1.2.

For `Cc1cc(Nc2ncnc3cnc(N(C)CC(C)(C)O)nc23)ccc1Oc1ccc2c(c1)ncn2C` [Example 163, 2-methyl-1-(methyl(8-((3-methyl-4-((1-methyl-1H-benzo[d]imidazol-5-yl)oxy)phenyl)amino)pyrimido[5,4-d]pyrimidin-2-yl)amino)propan-2-ol], the IC50 in series [1] was 0.0282 µM; on ErbB2 WT it was 0.0368 µM; on EGFR, 4.48 µM; in series [2], 0.0216 µM; against EGFR wild type (EGFR WT), not below 5 µM. In addition, the efflux ratio at 2 h, 1 μM on MDR1 (P-gp) (setting [3]) is 1.8; on BCRP (setting [4]) it was 2.7.

Turning to `Cc1cc(Nc2ncnc3cnc(N4C[C@H]5C[C@@H]4CO5)nc23)ccc1Oc1cc(F)c2c(c1)ncn2C` [Example 204, 6-((1R,4R)-2-oxa-5-azabicyclo[2.2.1]heptan-5-yl)-N-(4-((7-fluoro-1-methyl-1H-benzo[d]imidazol-5-yl)oxy)-3-methylphenyl)pyrimido[5,4-d]pyrimidin-4-amine], the IC50 in series [1] was 0.0319 µM; on ErbB2 WT, 0.108 µM; at EGFR, 8.06 µM; in series [2], 0.0131 µM; against EGFR wild type (EGFR WT), not below 5 µM. Besides, the results for the efflux ratio at 2 h, 1 μM at MDR1 (P-gp) (setting [3]) and at BCRP (setting [4]) were 1.3 and 1.2, respectively.

In the case of `Cc1cc(Nc2ncnc3cnc(NCC(F)F)nc23)ccc1Oc1cc(F)c2c(c1)ncn2C` [Example 207, N2-(2,2-difluoroethyl)-N8-(4-((7-fluoro-1-methyl-1H-benzo[d]imidazol-5-yl)oxy)-3-methylphenyl)pyrimido[5,4-d]pyrimidine-2,8-diamine], the IC50 is 0.0224 µM in series [1]; 0.0451 µM on ErbB2 WT; 1.72 µM on EGFR; 0.0169 µM in series [2]; not below 5 µM against EGFR wild type (EGFR WT). The efflux ratio at 2 h, 1 μM was 1.6 on MDR1 (P-gp) (setting [3]) and 1.7 at BCRP (setting [4]).

Turning to `Cc1cc(Nc2ncnc3cnc(N4CCC45COC5)nc23)ccc1Oc1cc(F)c2c(c1)ncn2C` [Example 216, N-(4-((7-fluoro-1-methyl-1H-benzo[d]imidazol-5-yl)oxy)-3-methylphenyl)-6-(6-oxa-1-azaspiro[3.3]heptan-1-yl)pyrimido[5,4-d]pyrimidin-4-amine], the IC50 in series [1] is 0.0332 µM; against ErbB2 WT, 0.0486 µM; against EGFR, 2.36 µM; in series [2], 0.0157 µM; against EGFR wild type (EGFR WT), not below 5 µM. Also, the efflux ratio at 2 h, 1 μM at MDR1 (P-gp) (LLC-PK1) came to 1.7; on BCRP it was 0.9.

Consider `Cc1cc(Nc2ncnc3cnc(N4CCCC4)nc23)ccc1Oc1ccc2c(c1)ncn2C` [Example 222], for which the IC50 in series [1] was 0.0344 µM; on ErbB2 WT it was 0.0412 µM; at EGFR it was not below 10 µM; in series [2], 0.0389 µM; on EGFR wild type (EGFR WT), not below 5 µM. Also, the figures for the efflux ratio at 2 h, 1 μM at MDR1 (P-gp) (setting [3]) and on BCRP (setting [4]) were 1 and 1.6, respectively.

For `Cc1ncc(-c2ncc3ncnc(Nc4ccc(Oc5ccc6c(c5)ncn6C)c(C)c4)c3n2)o1` [Example 223], the half-inhibitory concentration (IC50) in series [1] was 0.0916 µM; on ErbB2 WT it was 0.101 µM; against EGFR, not below 10 µM; in series [2] it was 0.0127 µM; at EGFR wild type (EGFR WT) it was not below 5 µM. In addition, the efflux ratio at 2 h, 1 μM on MDR1 (P-gp) (setting [3]) is 1.9; at BCRP (setting [4]), 3.7.

`Cc1cc(Nc2ncnc3cnc(-c4cnsc4)nc23)ccc1Oc1ccc2c(c1)ncn2C` [Example 228]: the IC50 in series [1] was 0.115 µM; at ErbB2 WT, 0.272 µM; against EGFR, not below 10 µM; in series [2], 0.0242 µM; at EGFR wild type (EGFR WT) it was not below 5 µM. For the same compound, the figures for the efflux ratio at 2 h, 1 μM on MDR1 (P-gp) (setting [3]) and on BCRP (setting [4]) were 1.1 and 1, respectively.

As to `Cc1cc(Nc2ncnc3cnc(-c4cccnc4)nc23)ccc1Oc1ccc2c(c1)ncn2C` [Example 233], the IC50 in series [1] was 0.0275 µM; against ErbB2 WT it was 0.0415 µM; at EGFR it was 3.74 µM; in series [2] it was 0.0157 µM; against EGFR wild type (EGFR WT), not below 5 µM. Moreover, the results for the efflux ratio at 2 h, 1 μM on MDR1 (P-gp) (setting [3]) and at BCRP (setting [4]) were 1.5 and 1.6, respectively.

`Cc1cc(Nc2ncnc3cnc(N4CC5C(C4)C5(F)F)nc23)ccc1Oc1ccc2c(c1)ncn2C` (stereo not shown) [Example 234]: the IC50 in series [1] was 0.104 µM; against ErbB2 WT, 0.165 µM; against EGFR, not below 10 µM; in series [2] it was 0.0391 µM; at EGFR wild type (EGFR WT) it was not below 5 µM. Moreover, the results for the efflux ratio at 2 h, 1 μM at MDR1 (P-gp) (setting [3]) and on BCRP (setting [4]) were 1.8 and 5.2, respectively.

Take `Cc1cc(Nc2ncnc3cnc(-c4ccccn4)nc23)ccc1Oc1ccc2c(c1)ncn2C` [Example 239]: the IC50 in series [1] is 0.127 µM; on ErbB2 WT, 0.107 µM; at EGFR it was not below 10 µM; in series [2] it was 0.0091 µM; at EGFR wild type (EGFR WT) it was not below 5 µM. Further, the efflux ratio at 2 h, 1 μM on MDR1 (P-gp) (setting [3]) is 2.1; at BCRP (setting [4]) it was 3.5.

As for `Cc1nc(-c2ncc3ncnc(Nc4ccc(Oc5ccc6c(c5)ncn6C)c(C)c4)c3n2)cs1` [Example 247], the IC50 in series [1] was 0.0817 µM; on ErbB2 WT it was 0.0969 µM; against EGFR, not below 10 µM; in series [2], 0.0035 µM; against EGFR wild type (EGFR WT), not below 5 µM. For the same compound, the efflux ratio at 2 h, 1 μM at MDR1 (P-gp) (setting [3]) is 1.6; at BCRP (setting [4]), 4.7.

With `Cc1cc(Nc2ncnc3cnc(N4CCC[C@H]4C(F)(F)F)nc23)ccc1Oc1ccc2c(c1)ncn2C` [Example 249], the IC50 is 0.0359 µM in series [1]; 0.0234 µM on ErbB2 WT; not below 10 µM on EGFR; 0.0374 µM in series [2]; not below 5 µM at EGFR wild type (EGFR WT). Besides, the efflux ratio at 2 h, 1 μM on MDR1 (P-gp) (setting [3]) was 0.3; on BCRP (setting [4]), 3.

Turning to `Cc1cc(Nc2ncnc3cnc(N4CC[C@H](C(F)F)C4)nc23)ccc1Oc1ccc2c(c1)ncn2C` [Example 252], the IC50 in series [1] is 0.0929 µM; against ErbB2 WT, 0.242 µM; on EGFR it was not below 10 µM; in series [2], 0.0257 µM; on EGFR wild type (EGFR WT), not below 5 µM. Further, the values for the efflux ratio at 2 h, 1 μM at MDR1 (P-gp) (setting [3]) and on BCRP (setting [4]) were 0.7 and 2.6, respectively.

As for `Cc1cc(Nc2ncnc3cnc(N4CC[C@@H](C(F)F)C4)nc23)ccc1Oc1ccc2c(c1)ncn2C` [Example 253], the IC50 in series [1] was 0.093 µM; against ErbB2 WT it was 0.171 µM; at EGFR, not below 10 µM; in series [2] it was 0.0393 µM; on EGFR wild type (EGFR WT), not below 5 µM. For the same compound, the efflux ratio at 2 h, 1 μM at MDR1 (P-gp) (setting [3]) came to 1.2; on BCRP (setting [4]), 2.

For `Cc1cc(Nc2ncnc3cnc(N4C[C@H]5C[C@@H]4CO5)nc23)ccc1Oc1ccc2c(c1)ncn2C` [Example 262], the IC50 in series [1] was 0.0223 µM; at ErbB2 WT, 0.116 µM; against EGFR, not below 10 µM; in series [2], 0.044 µM; against EGFR wild type (EGFR WT), not below 5 µM. Besides, the results for the efflux ratio at 2 h, 1 μM on MDR1 (P-gp) (setting [3]) and at BCRP (setting [4]) were 1.7 and 2.7, respectively.
